Source: patent US8613948B2, “Treatment of faecal incontinence and other conditions with 1R, 2S-methoxamine” (Norgine BV, priority 2001, dated 2013)
Several values for one entry are separate records, joined by “and”; a condition that tells them apart may be missing. Identical values can stand only once.

Key:
anoderm = test: Macroscopical inspection of the anoderm; type: in vivo, Göttingen-minipigs; details: 0.3%, 1%, or 3%
Experimental: A macroscopical inspection of the anoderm was carried out during the experiments. Any obvious irritation and/or erythema caused by the fairly low pH value of the test substance formulation was reported.

[1] = Methoxamine plasma levels in minipigs after topical administration to the anoderm; type: in vivo, Göttingen-minipigs; details: for mean peak plasma levels: 0.5 ml topical, two pigs
Experimental: (§1) The test substances were administered topically to the anoderm using a volume of 0.5 ml/animal. The interval between each observation period was 20 minutes. The administration was performed employing a 1 ml syringe inserted approximately 1 cm into the anal canal. The test substances were administered slowly while the syringe was rotated. After the preparation and a period of at least 15 minutes for stabilisation of the circulatory functions, the animals were treated with the placebo or the selected dose levels of the test substance by administration to the anoderm.
Blood samples (5 ml/time-point) were taken immediately before and 10, 20, 40, 60, 90, and 120 minutes after start of administration, and were collected into lithium-heparin containers. The blood samples were immediately cooled at +2° C. to +8° C. by the use of an IsoTherm-Rack system (Eppendorf-Netheler-Hinz GmbH, D-22331 Hamburg, Germany) and the whole blood was processed for […]. Plasma was prepared by centrifugation (5 min, 4000 rpm, at +5° C.) and split into aliquots of approx. 1 ml each. Both plasma aliquots were immediately frozen at −80° C. at least and stored at this temperature until dispatch of one aliquot on dry ice for analysis.
The samples were analysed for the methoxamine plasma levels. The results are presented in Appendix 3.

anaesthetised minipigs [2] = system: anaesthetised minipigs; design: species or system Göttingen-minipigs; details: in vivo
Experimental: as §1
ECG recordings were made using the standard limb leads I, II and III as well as augmented limb leads aVR, aVL and aVF. A standardisation of 10 mm/1 mV was used and a paper speed of 50 mm/sec. The recordings were carried out using a HELLIGE Marquette mac 5000 12SL. The recordings were examined visually for any arrhythmias and abnormalities of the electrical complexes. In addition, the following parameters were evaluated for limb lead II: Heart rate [beats/min]; P segment, [msec]; P-Q interval, [msec]; QRS complex [msec]; Q-T interval, [msec]. The QTc values [msec] were calculated according to the van de Water-formula: QTc=QT−0.087 (R-R distance−1000)
For each measurement period the heart rate, ECG and the blood pressure in the a. femoralis were measured continuously and recorded immediately before and 5, 10, 15, 20, 40 and 60 minutes after start of administration for periods of approx. 30 sec, and then in intervals of 20 minutes until any effect had subsided.

anaesthetised minipigs [3] = test: Mean anal resting pressure (MARP) in anaesthetised minipigs after topical administration to the anoderm; type: in vivo, Göttingen-minipigs; details: for effect on internal anal sphincter pressure and blood pressure: pigs in vivo
Experimental: • a) Placebo in 4% w/w gel • b) 0.3% by weight 1R,2S-methoxamine in 4% w/w gel • c) 1% by weight 1R,2S-methoxamine in 4% w/w gel • d) 3% by weight 1R,2S-methoxamine in 4% w/w gel • The 4% w/w gel comprises 4 g of hydroxypropylmethyl cellulose in 96 ml of 0.5M acetate buffer. 1% by weight 1R,2S-methoxamine in 4% w/w gel comprises 1 g of 1R,2S-methoxamine in 99 g of the 4% gel. Animals/Animal Maintenance
Göttingen-minipigs obtained from Ellegaard Göttingen Minipigs ApS, Soro Landevej 302, DK-4261 Dalmose, Denmark were used for the investigation. […] Four male animals were used. Animal no. 2 was replaced by animal no. 4, see below.
The minipigs were anaesthetised with a chloralose-urethane mixture (ratio 1+5). Additional anaesthesia was given when needed. To ensure a stable general condition of the minipig, blood gases and pH-value were measured in blood obtained from the right or left a. femoralis using a blood gas analyser ABL 70 (Radiometer, Copenhagen, Denmark) before start of experiment. Ringer solution (5 ml/kg b.w./h) was given continuously to compensate for fluid losses. The body temperature of the animals was maintained at 38° C. throughout the experiment of external heating.
as §1
The anal resting pressure was measured by introduction of a manometric probe (Unisensor Microtipcatheter 8104-00-9409-D; Medical Measurement Systems b.v., Collosseum 25, NL-7521P.V. Enschede, The Netherlands) into the rectum three times. The anal resting pressure taken as a mean of these three measurements (MARP) was recorded with a Rikadenki Multipenrecorder.

anaesthetised minipigs [4] = test: Peripheral arterial blood pressure in anaesthetised minipigs after topical administration to the anoderm; type: in vivo, Göttingen-minipigs; details: 0.5 ml of 0.3%, 1%, 3% gels
Experimental: as §1
An intraarterial indwelling catheter (size 0.8×1.4 mm, B. Braun Melsungen AG, D-34212 Melsungen, Germany) was connected to a pressure transducer (DTX, Pfrimmer-Viggo, Erlangen, Germany) recording the systolic and diastolic arterial blood pressure in the right or left a. femoralis. The signal was boosed by a Hellige Servomed SMV 178 T amplifier (Hellige GmbH, D-79100 Freiburg, Germany). The blood pressure was recorded and monitored with a Hellige Cardiognost EK 512 P (paper speed: 2.5 mm/sec). Systolic and diastolic blood pressure [mmHg] were determined and the mean pressure was calculated according to the following formula: Mean blood pressure [mmHg]=(systolic pressure+(2×diastolic pressure))/3 Heart Rate and Electrocardiography […]

COc1ccc(OC)c([C@@H](O)C(C)N)c1 (single isomer, unassigned) [1R,2S-methoxamine]
macroscopic inspection: pathological changes (anoderm): No pathological changes were observed
maximum plasma levels ([1]; 0.3% formulation): 6 ng methoxamine/ml plasma
time of peak plasma levels ([1]; 0.3% gel): 40 min
mean peak plasma levels ([1]; 0.3% gel): 4.90 ng/mL and 6.97 ng/mL
time of maximum plasma levels following application ([1]; 0.3%, 1% and 3% formulations): approximately 40 minutes
maximum plasma levels ([1]; 1% formulation): 10 ng methoxamine/ml plasma
mean peak plasma levels ([1]; 1.0% gel): 9.88 ng/mL and 11.0 ng/mL
maximum plasma levels ([1]; 3% formulation): 56 ng methoxamine/ml plasma
mean peak plasma levels ([1]; 3.0% gel): 50.4 ng/mL and 61.3 ng/mL
heart rate (anaesthetised minipigs [2]; Göttingen, minipig, 2 h): approx. 100 beats/min
increase in the heart rate (anaesthetised minipigs [2]; Göttingen, minipig, 2 h): 29%
influence on P-segment, P-Q interval, Q-T interval, QTc value and QRS complex (anaesthetised minipigs [2]): no substance-related influence
prolongation of the QT-interval (anaesthetised minipigs [2]): no evidence was noted for a prolongation of the QT-interval
ventricular premature complexes (visual assessment of ECG) (anaesthetised minipigs [2]): did not reveal any ventricular premature complexes
increase in MARP compared to the start value (anaesthetised minipigs [3]; 0.5 ml of 0.3% gel): 73%
period of MARP increase (anaesthetised minipigs [3]; 0.5 ml of 0.3% gel): 110 min
start of MARP increase after administration (anaesthetised minipigs [3]; 0.5 ml of 0.3% gel): 5 min
MARP (anaesthetised minipigs [3]; 0.5 ml of 0.3% gel, topical to anoderm, average): 50 mmHg
increase in MARP (anaesthetised minipigs [3]; 0.5 ml of 1% gel): 227%
time after application to MARP increase (anaesthetised minipigs [3]; 0.5 ml of 1% gel): ≤ 20 min
MARP (anaesthetised minipigs [3]; 0.5 ml of 1% gel, average): 64 mmHg
MARP (anaesthetised minipigs [3]; 0.5 ml of 3% gel): 70 mmHg
MARP (anaesthetised minipigs [3]; 0.5 ml of 3% gel, listed as IR,2S-methoxamine): approx. 70 mmHg
effect on internal anal sphincter pressure and blood pressure (anaesthetised minipigs [3]; 0.5 ml of gel containing 1% or 0.3% by weight (5 mg and 1.5 mg), topical): increase internal anal sphincter pressure without any effect on blood pressure
effect on internal anal sphincter pressure and blood pressure (anaesthetised minipigs [3]; gels containing 1% by weight and even as little as 0.1% by weight): increase internal anal sphincter pressure without any effect on blood pressure
systolic, diastolic or mean blood pressure (anaesthetised minipigs [4]): not influenced
